Laboratory results from patent US20170305893A1 (Thomas Helledays Stiftelse for Medicinsk Forskning, priority 2014, published 2017).

The molecules below were run against T1, DCTPP1 (Homo sapiens, UniProt Q9H773) (assay: DCTPP1 inhibition assay (malachite green)). Conditions: 35 nM DCTPP1, 35 μM dCTP, 20 minutes at 22° C.; read-out: IC50.
T1 sequence (Q9H773 1-170): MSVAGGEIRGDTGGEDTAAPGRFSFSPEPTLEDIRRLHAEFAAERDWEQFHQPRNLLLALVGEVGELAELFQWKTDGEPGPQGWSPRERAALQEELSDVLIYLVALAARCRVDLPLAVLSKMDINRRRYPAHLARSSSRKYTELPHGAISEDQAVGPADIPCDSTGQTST
Assay type: biochemical
Procedure: DCTPP1 catalyzes the hydrolysis of dCTP to dCMP and PPi. By coupling the reaction to pyrophosphatase added in excess PPi is converted to Pi that can be detected by using the malachite green assay reagent. […] DCTPP1 diluted in assay buffer (100 mM Tris-acetate, 100 mM KCl, 10 mM magnesium acetate, 1 mM DTT and 0.005% Tween 20) fortified with E. coli pyrophosphatase (0.2 U/mL) is added to a final concentration of 35 nM. dCTP diluted in assay buffer is added to a final concentration of 35 μM. The reaction mixture is incubated with shaking for 20 minutes at 22° C. To 100 μl reaction mixture is added […] Malachite green assay reagent (0.095% Malachite green in 17% H2SO4, 1.5% Ammonium molybdate, 0.17% Tween 20) added followed by incubation with shaking for 15 minutes at 22° C. The absorbance of the assay plate is read at 630 nm using a SpectraMax plate reader (Molecular Devices).

| Molecule | IC50 [nM] |
| --- | --- |
| 5,6-dichloro-2-methyl-4-nitro-1-(4-(trifluoro-l4-boranyl)benzyl)-1H-benzo[d]imidazole [Compound 2.2.48] | 39 |
| Cc1nc2c([N+](=O)[O-])c(F)c(F)cc2n1Cc1ccccc1 [Compound 2.2.10, 1-benzyl-5,6-difluoro-2-methyl-4-nitro-1H-benzo[d]imidazole] | 410 |

Next, values leading:

| IC50 [nM] | Molecule |
| --- | --- |
| 206 | O=[N+]([O-])c1cccc2c1nc(C(F)(F)F)n2Cc1ccc(B(O)O)cc1 [Compound 2.2.8, (4-((4-nitro-2-(trifluoromethyl)-1H-benzo[d]imidazol-1-yl)methyl)phenyl)boronic acid] |
| 74 | Cc1nc2c([N+](=O)[O-])c(Cl)c(Cl)cc2n1S(=O)(=O)c1ccccc1 [Compound 2.2.17, 5,6-dichloro-2-methyl-4-nitro-1-(phenylsulfonyl)-1H-benzo[d]imidazole] |
| 41 | COc1ccc(Cn2c(C)nc3c([N+](=O)[O-])c(Cl)c(Cl)cc32)cc1 [Compound 2.2.20, 5,6-dichloro-1-(4-methoxybenzyl)-2-methyl-4-nitro-1H-benzo[d]imidazole] |

Same assay, conditions: 35 nM DCTPP1, 35 μM dCTP, 20 minutes at 22° C.; read-out: IC50 (nM), class

| Molecule | IC50 [nM] |
| --- | --- |
| 1-(4-methoxybenzyl)-4-nitro-1H-benzo[d]imidazole [Compound 2.2.62] | ≥ 1000 |
| 5,6-dichloro-2-methyl-4-nitro-1-(4-(trifluoro-l4-boranyl)benzyl)-1H-benzo[d]imidazole [Compound 2.2.48] | < 100 |
| COc1ccc(Cn2c(C)nc3c([N+](=O)[O-])cccc32)cc1 [Compound 2.2.1, 1-(4-methoxybenzyl)-2-methyl-4-nitro-1H-benzo[d]imidazole] | ≥ 1000 |
| COc1ccc(Cn2c(-c3ccccc3)nc3c([N+](=O)[O-])cccc32)cc1 [Compound 2.2.2, 1-(4-methoxybenzyl)-4-nitro-2-phenyl-1H-benzo[d]imidazole] | ≥ 1000 |
| COc1ccc(Cn2c(Cc3ccccc3)nc3c([N+](=O)[O-])cccc32)cc1 [Compound 2.2.3, 2-benzyl-1-(4-methoxybenzyl)-4-nitro-1H-benzo[d]imidazole] | ≥ 1000 |
| COc1ccc(Cn2c(C(F)(F)F)nc3c([N+](=O)[O-])cccc32)cc1 [Compound 2.2.4, 1-(4-methoxybenzyl)-4-nitro-2-(trifluoromethyl)-1H-benzo[d]imidazole] | ≥ 1000 |
| COc1ccc(Cn2c(OC)nc3c([N+](=O)[O-])cccc32)cc1 [Compound 2.2.5, 2-methoxy-1-(4-methoxybenzyl)-4-nitro-1H-benzo[d]imidazole] | ≥ 1000 |
| COCc1nc2c([N+](=O)[O-])cccc2n1Cc1ccc(OC)cc1 [Compound 2.2.6, 1-(4-methoxybenzyl)-2-(methoxymethyl)-4-nitro-1H-benzo[d]imidazole] | ≥ 1000 |
| COc1ccc(Cn2c(C(C)C)nc3c([N+](=O)[O-])cccc32)cc1 [Compound 2.2.7, 2-isopropyl-1-(4-methoxybenzyl)-4-nitro-1H-benzo[d]imidazole] | ≥ 1000 |
| Cc1nc2c([N+](=O)[O-])c(F)c(F)cc2n1Cc1ccc(C#N)cc1 [Compound 2.2.11, 4-((5,6-difluoro-2-methyl-4-nitro-1H-benzo[d]imidazol-1-yl)methyl)benzonitrile] | ≥ 1000 |
| Cc1nc2c([N+](=O)[O-])c(F)c(F)cc2n1Cc1ccc(F)cc1 [Compound 2.2.12, 5,6-difluoro-1-(4-fluorobenzyl)-2-methyl-4-nitro-1H-benzo[d]imidazole] | 500 to 1000 |
| Cc1nc2c([N+](=O)[O-])c(F)c(F)cc2n1Cc1ccc(-n2cncn2)cc1 [Compound 2.2.13, 1-(4-(1H-1,2,4-triazol-1-yl)benzyl)-5,6-difluoro-2-methyl-4-nitro-1H-benzo[d]imidazole] | ≥ 1000 |
| Cc1nc2c([N+](=O)[O-])c(F)c(F)cc2n1C(C)c1ccccc1 (stereo not drawn) [Compound 2.2.14, 5,6-difluoro-2-methyl-4-nitro-1-(1-phenylethyl)-1H-benzo[d]imidazole] | ≥ 1000 |
| Cc1nc2c([N+](=O)[O-])c(F)c(F)cc2n1Cc1ccc(B(O)O)cc1 [Compound 2.2.15, (4-((5,6-difluoro-2-methyl-4-nitro-1H-benzo[d]imidazol-1-yl)methyl)phenyl)boronic acid] | 500 to 1000 |
| Cc1nc2c([N+](=O)[O-])c(Cl)c(Cl)cc2n1Cc1ccc(-n2cncn2)cc1 [Compound 2.2.35, 1-(4-(1H-1,2,4-triazol-1-yl)benzyl)-5,6-dichloro-2-methyl-4-nitro-1H-benzo[d]imidazole] | 500 to 1000 |
| Cc1nc2c([N+](=O)[O-])c(Cl)c(Cl)cc2n1Cc1ccc(C#N)cc1 [Compound 2.2.40, 4-((5,6-dichloro-2-methyl-4-nitro-1H-benzo[d]imidazol-1-yl)methyl)benzonitrile] | 100 to 500 |
| Cc1nc2c([N+](=O)[O-])c(Cl)c(Cl)cc2n1Cc1ccc(S(C)(=O)=O)cc1 [Compound 2.2.41, 5,6-dichloro-2-methyl-1-(4-(methylsulfonyl)benzyl)-4-nitro-1H-benzo[d]imidazole] | 100 to 500 |
| Cc1nc(Cn2c(C)nc3c([N+](=O)[O-])c(Cl)c(Cl)cc32)cs1 [Compound 2.2.42, 4-((5,6-dichloro-2-methyl-4-nitro-1H-benzo[d]imidazol-1-yl)methyl)-2-methylthiazole] | 100 to 500 |

Continued, values first:

| IC50 [nM] | Molecule |
| --- | --- |
| 100 to 500 | O=[N+]([O-])c1cccc2c1nc(C(F)(F)F)n2Cc1ccc(B(O)O)cc1 [Compound 2.2.8, (4-((4-nitro-2-(trifluoromethyl)-1H-benzo[d]imidazol-1-yl)methyl)phenyl)boronic acid] |
| < 100 | Cc1nc2c([N+](=O)[O-])c(Cl)c(Cl)cc2n1-c1ccccc1 [Compound 2.2.16, 5,6-dichloro-2-methyl-4-nitro-1-phenyl-1H-benzo[d]imidazole] |
| < 100 | Cc1nc2c([N+](=O)[O-])c(Cl)c(Cl)cc2n1S(=O)(=O)c1ccccc1 [Compound 2.2.17, 5,6-dichloro-2-methyl-4-nitro-1-(phenylsulfonyl)-1H-benzo[d]imidazole] |
| 100 to 500 | Cc1nc2c([N+](=O)[O-])c(Cl)c(Cl)cc2n1C(=O)c1ccccc1 [Compound 2.2.18, (5,6-dichloro-2-methyl-4-nitro-1H-benzo[d]imidazol-1-yl)(phenyl)methanone] |
| < 100 | Cc1nc2c([N+](=O)[O-])c(Cl)c(Cl)cc2n1Cc1ccccc1 [Compound 2.2.19, 1-benzyl-5,6-dichloro-2-methyl-4-nitro-1H-benzo[d]imidazole] |
| < 100 | COc1ccc(Cn2c(C)nc3c([N+](=O)[O-])c(Cl)c(Cl)cc32)cc1 [Compound 2.2.20, 5,6-dichloro-1-(4-methoxybenzyl)-2-methyl-4-nitro-1H-benzo[d]imidazole] |
| 100 to 500 | COc1cccc(Cn2c(C)nc3c([N+](=O)[O-])c(Cl)c(Cl)cc32)c1 [Compound 2.2.21, 5,6-dichloro-1-(3-methoxybenzyl)-2-methyl-4-nitro-1H-benzo[d]imidazole] |
| < 100 | CC(=O)Oc1ccc(Cn2c(C)nc3c([N+](=O)[O-])c(Cl)c(Cl)cc32)cc1 [Compound 2.2.22, 4-((5,6-dichloro-2-methyl-4-nitro-1H-benzo[d]imidazol-1-yl)methyl)phenyl acetate] |
| < 100 | Cc1nc2c([N+](=O)[O-])c(Cl)c(Cl)cc2n1Cc1ccc(O)cc1 [Compound 2.2.25, 4-((5,6-dichloro-2-methyl-4-nitro-1H-benzo[d]imidazol-1-yl)methyl)phenol] |
| < 100 | Cc1ccc(Cn2c(C)nc3c([N+](=O)[O-])c(Cl)c(Cl)cc32)cc1 [Compound 2.2.26, 5,6-dichloro-2-methyl-1-(4-methylbenzyl)-4-nitro-1H-benzo[d]imidazole] |
| 100 to 500 | Cc1nc2c([N+](=O)[O-])c(Cl)c(Cl)cc2n1Cc1ccc(C=O)cc1 [Compound 2.2.27, 4-((5,6-dichloro-2-methyl-4-nitro-1H-benzo[d]imidazol-1-yl)methyl)benzaldehyde] |
| < 100 | Cc1nc2c([N+](=O)[O-])c(Cl)c(Cl)cc2n1Cc1ccc(C=NO)cc1 [Compound 2.2.28, 4-((5,6-dichloro-2-methyl-4-nitro-1H-benzo[d]imidazol-1-yl)methyl)benzaldehyde oxime] |
| < 100 | C=CC(=O)c1ccc(Cn2c(C)nc3c([N+](=O)[O-])c(Cl)c(Cl)cc32)cc1 [Compound 2.2.30, 1-(4-((5,6-dichloro-2-methyl-4-nitro-1H-benzo[d]imidazol-1-yl)methyl)phenyl)prop-2-en-1-one] |
| < 100 | C=CC(=O)Nc1ccc(Cn2c(C)nc3c([N+](=O)[O-])c(Cl)c(Cl)cc32)cc1 [Compound 2.2.32, N-(4-((5,6-dichloro-2-methyl-4-nitro-1H-benzo[d]imidazol-1-yl)methyl)phenyl)acrylamide] |
| 100 to 500 | Cc1n[nH]c(C)c1CCn1c(C)nc2c([N+](=O)[O-])c(Cl)c(Cl)cc21 [Compound 2.2.33, 5,6-dichloro-1-(2-(3,5-dimethyl-1H-pyrazol-4-yl)ethyl)-2-methyl-4-nitro-1H-benzo[d]imidazole] |
| < 100 | Cc1nc2c([N+](=O)[O-])c(Cl)c(Cl)cc2n1Cc1ccc(-n2cccn2)cc1 [Compound 2.2.34, 1-(4-(1H-pyrazol-1-yl)benzyl)-5,6-dichloro-2-methyl-4-nitro-1H-benzo[d]imidazole] |
| < 100 | Cc1nc2c([N+](=O)[O-])c(Cl)c(Cl)cc2n1Cc1ccc(C(=O)O)cc1 [Compound 2.2.37, 4-((5,6-dichloro-2-methyl-4-nitro-1H-benzo[d]imidazol-1-yl)methyl)benzoic acid] |
| 100 to 500 | COC(=O)c1ccc(Cn2c(C)nc3c([N+](=O)[O-])c(Cl)c(Cl)cc32)cc1 [Compound 2.2.38, methyl 4-((5,6-dichloro-2-methyl-4-nitro-1H-benzo[d]imidazol-1-yl)methyl)benzoate] |
| < 100 | Cc1nc2c([N+](=O)[O-])c(Cl)c(Cl)cc2n1Cc1ccc(C(N)=O)cc1 [Compound 2.2.39, 4-((5,6-dichloro-2-methyl-4-nitro-1H-benzo[d]imidazol-1-yl)methyl)benzamide] |
